The target in this assay is T1, recombinant human GR (Homo sapiens, UniProt P04150).
T1 construct: purchased Panvera/Invitrogen P2812 (kit P2893)
T1 sequence (P04150 1-777): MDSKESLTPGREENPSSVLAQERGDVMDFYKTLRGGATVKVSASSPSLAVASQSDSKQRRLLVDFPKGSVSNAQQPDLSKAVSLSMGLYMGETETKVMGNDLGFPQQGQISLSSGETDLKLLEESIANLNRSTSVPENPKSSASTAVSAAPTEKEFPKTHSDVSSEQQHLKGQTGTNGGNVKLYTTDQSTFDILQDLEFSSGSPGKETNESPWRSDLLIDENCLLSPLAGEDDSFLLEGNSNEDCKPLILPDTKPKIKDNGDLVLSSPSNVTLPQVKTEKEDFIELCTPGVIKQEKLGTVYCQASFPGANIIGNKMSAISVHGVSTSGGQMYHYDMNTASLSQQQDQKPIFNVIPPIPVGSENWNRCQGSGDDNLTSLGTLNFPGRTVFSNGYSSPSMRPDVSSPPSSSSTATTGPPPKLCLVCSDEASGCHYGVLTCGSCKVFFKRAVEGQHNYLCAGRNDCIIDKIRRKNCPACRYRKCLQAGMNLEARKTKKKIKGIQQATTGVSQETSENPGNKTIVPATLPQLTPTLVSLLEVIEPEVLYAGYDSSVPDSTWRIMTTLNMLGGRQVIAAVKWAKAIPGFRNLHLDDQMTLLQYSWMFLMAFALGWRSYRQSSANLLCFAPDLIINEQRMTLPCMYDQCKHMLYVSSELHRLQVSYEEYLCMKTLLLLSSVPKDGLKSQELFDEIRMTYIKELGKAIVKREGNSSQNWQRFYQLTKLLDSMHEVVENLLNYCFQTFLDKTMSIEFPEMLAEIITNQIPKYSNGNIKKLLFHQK
As to the kind of experiment: Human Glucocorticoid Receptor (GR) Assay, fluorescence polarization (GRhuFL_FP_v2). The format is binding. Conditions: GS Red tracer, 2 hours at room temperature, 100% control 10 μM Dexamethasone. As for the experimental part: Human Glucocorticoid Receptor (GR) Assay
The assay is based on a commercial kit from Panvera/Invitrogen (Part number P2893). The assay technology is fluorescence polarization. […] The GR and Stabilizing Peptide reagents are stored at −70° C. while the GS Red is stored at −20° C. Also included in the kit are 1M DTT (Panvera, Part number P2325, stored at −20° C.) and GR Screening buffer 10× (Panvera, Part number P2814, stored at −70° C. initially but once thawed stored at room temperature). Avoid repeated freeze/thaws for all reagents. The GR Screening buffer 10× comprises 100 mM potassium phosphate, 200 mM sodium molybdate, 1 mM EDTA and 20% DMSO.
0% control was 100% DMSO and 100% control was 10 μM Dexamethasone. Background solution (8 μL; assay buffer 10×, Stabilizing Peptide, DTT and ice cold MQ water) was added to the background wells. GS Red solution (7 μL; assay buffer 10×, Stabilizing Peptide, DTT, GS Red and ice cold water) was added to all wells except background wells. GR solution (7 μL; assay buffer 10×, Stabilizing Peptide, DTT, GR and ice cold water) was added to all wells. The plate was sealed and incubated in a dark at room temperature for 2 hours.
Background: Polarisation of emitted light reports the rotation of a fluorescent probe.
For `C[C@H](NS(=O)(=O)C1CC1)[C@H](Oc1ccc2c(cnn2C2CCCC2)c1)c1ccccc1` [Example 32, N-[(1R,2S)-1-(1-cyclopentylindazol-5-yl)oxy-1-phenyl-propan-2-yl]cyclopropanesulfonamide], the IC50 – broadly, the concentration at which inhibition is half-maximal – turned out to be 7.6 nM.
In the case of `C[C@H](NS(=O)(=O)C1CC1)[C@H](Oc1cccc2c1cnn2-c1ccc(F)cc1)c1ccccc1` [Example 3, N-[(1R,2S)-1-[1-(4-fluorophenyl)indazol-4-yl]oxy-1-phenyl-propan-2-yl]cyclopropanesulfonamide], the IC50 came out at 90 nM.
The same measure for `O=S(=O)(NC[C@H](Oc1ccc2c(cnn2-c2ccc(F)cc2)c1)c1ccccc1)C1CC1` [Example 40, N-[(2R)-2-[1-(4-fluorophenyl)indazol-5-yl]oxy-2-phenyl-ethyl]cyclopropanesulfonamide]: 13 nM; for `C[C@H](NS(=O)(=O)C1CCCC1)[C@H](Oc1ccc2c(cnn2-c2ccc(F)cc2)c1)c1ccccc1` [Example 21, N-[(1R,2S)-1-[1-(4-fluorophenyl)indazol-5-yl]oxy-1-phenyl-propan-2-yl]cyclopentanesulfonamide]: 9.9 nM.

For the origin of these results see patent US20120065173A1 (priority 2006, published 2012).
